Data published in patent US9701709B2 (REATA PHARMACEUTICALS, INC., priority 2012, dated 2017).
Values joined by “and” are separate entries in the source; they are usually repeats but may differ in a detail not shown here. Equal values may be shown once.

Experiments:
[1] = system: human NQO1 ARE (Nrf2) in HuH-7 human hepatoma cells; assay: NQO1-ARE luciferase reporter in HuH-7; assay type: cell-based; conditions: 15.6 nM, 18 h
Text: The first luciferase reporter tested was under the control of a single ARE derived from the promoter of the human NQO1 gene, which allows for quantitative assessment of the endogenous activity of the Nrf2 transcription factor in cultured mammalian cells. […] The NQO1-ARE-luciferase reporter plasmid was constructed by inserting the human NQO1-ARE ([NT] ID NO: 31) into the pLuc-MCS vector using HindIII/XhoI cloning sites (GenScript Corp., Piscataway, N.J.). […] Firefly and Renilla luciferase activity was assayed by Dual-Glo Luciferase Assay (cat # E2920, Promega), and the luminescence signal was measured on an L-Max II luminometer (Molecular Devices). Firefly luciferase activity was normalized to the Renilla activity, and fold induction over a vehicle control (DMSO) of normalized Firefly activity was calculated. […] Values represent the average of three independent experiments.

[2] = system: NQO1 and HMOX1 protein in SH-SY5Y cells; assay: Western blot of Nrf2 target proteins in SH-SY5Y; assay type: cell-based, human; conditions: 24 h
Method: SH-SY5Y cells were plated in 6-well plates at a density of 4×10^5 cells per well. BV-2 cells were plated in 6-well plates at a density of 2.5×10^4 cells per well. […] Following treatment, cells were washed twice with cold PBS and harvested in lysis buffer. Cells were sonicated and debris was cleared by centrifugation (10 min @ 18,000 rcf, Beckman Coulter, microfuge 18 centrifuge). Total protein in supernatant was quantified using Bio-Rad protein reagent with BSA as a standard. Equal amounts of total cellular protein were separated on SDS-PAGE, and proteins were transferred to nitrocellulose membrane. Membranes were blocked for 1 hour in TBST (1×TBS with 0.1% Tween-20) containing 5% milk, washed 3 times with TBST, and incubated with primary antibodies overnight at 4° C. NQO1 antibody was from Abcam (#AB2346); HMOX1 (HO-1) antibody was from Santa Cruz (#sc-10789); actin antibody was from Millipore (#MAB 1501). After washing with TBST, secondary antibodies were added in TBST+5% milk for 1 h at room temperature. AffiniPure goat anti-rabbit or anti-mouse IgG secondary antibodies were from Jackson ImmunoResearch (catalog #111-035-144 and #115-035-146, respectively). Membranes were washed in TBST, developed using ECL, and exposed to X-ray film. […] HMOX1 protein was not detected in untreated or RTA 408-treated SH-SY5Y cells. […] The same amount of 63170 (54.6 nM) was required.

[3] = system: Alt1, Alt2, Ast1, Ast2 mRNA in AML-12 hepatocytes; assay: Transaminase gene mRNA (qPCR) in AML-12; assay type: cell-based, mouse; conditions: 250 nM or 500 nM, 18 h
Method: One hypothesis for this effect is that AIMs directly or indirectly increase transaminase gene expression in the absence of cellular toxicity. […] AML-12 cells were plated in 6-well culture dishes at 3×10^5 cells per well using 2 mL of media per well. […] Each well received 0.1% DMSO. Three independent replicate experiments were performed. Following treatment, media was removed and cells were harvested using RLT buffer (Qiagen). Lysates were homogenized using QIAShredder columns (Qiagen, Catalog #79654) and RNA was isolated using RNeasy Mini kits (Qiagen, Catalog #74104). For reverse transcription, RNA (1 μg) was combined with Oligo(dT)12-18 primer and H2O in a final volume of 23.25 μL. The mixture was heated to 70° C. for 10 min and then placed on ice. A master mix containing 8 μL 5×1st strand buffer, 2 μL 1 mg/ml BSA, 2 μL 20 mM DTT, 4 μL 5 mM dNTP mix, 0.25 μL RNaseOUTTM and 0.5 μL […]® II reverse transcriptase was added to the RNA mixture and incubated at 42° C. for 1 h. The reaction was inactivated by heating to 70° C. for 10 min. The reaction mixture was diluted 1:3 with H2O prior to use in qPCR. 2.5 μL of the diluted reverse transcription reaction was combined with one set of PCR primers (0.36 μM final concentration), 2× iQTM SYBR® Green Supermix (Bio-Rad, Catalog #170-8885) and H2O to a final volume of 20 pt. Sequences for PCR primers are as follows: […] All primers had previously been validated for specificity and amplification efficiency. cDNA was amplified using the following cycle conditions: (95° C. for 3 min, 44 cycles of 95° C. for 30 sec, 60° C. for 15 sec, 72° C. for 15 sec, followed by a melt curve of 55° C. to 95° C. in increments of 0.5° C.). The relative abundance of each target gene was determined using the comparative CT method (ΔΔCT). PCR reactions were run in triplicate wells for each sample.

LPS-induced sepsis = conditions: mouse, in vivo
neurobehavioral measures = assay: Neurobehavioral evaluation (FOB) in rats; assay type: in vivo, rat
Method: One additional group of 10 animals/sex served as the control and received vehicle (sesame oil).
Observations for morbidity, mortality, injury, and availability of food and water were conducted twice daily for all animals. Observations for clinical signs were conducted prior to dosing on Day 1 and following each functional observational battery (FOB) evaluation. FOB evaluations were conducted pre-dose (Day −1) and at approximately 4 and 24 h post-dose. Body weights were measured and recorded pre-dose on Day 1.

CYP1A2 = CYP1A2 (Homo sapiens, UniProt P05177); assay: in vitro; assay type: in vitro ADME; conditions: microsomes
Sequence of CYP1A2 (P05177 whole entry): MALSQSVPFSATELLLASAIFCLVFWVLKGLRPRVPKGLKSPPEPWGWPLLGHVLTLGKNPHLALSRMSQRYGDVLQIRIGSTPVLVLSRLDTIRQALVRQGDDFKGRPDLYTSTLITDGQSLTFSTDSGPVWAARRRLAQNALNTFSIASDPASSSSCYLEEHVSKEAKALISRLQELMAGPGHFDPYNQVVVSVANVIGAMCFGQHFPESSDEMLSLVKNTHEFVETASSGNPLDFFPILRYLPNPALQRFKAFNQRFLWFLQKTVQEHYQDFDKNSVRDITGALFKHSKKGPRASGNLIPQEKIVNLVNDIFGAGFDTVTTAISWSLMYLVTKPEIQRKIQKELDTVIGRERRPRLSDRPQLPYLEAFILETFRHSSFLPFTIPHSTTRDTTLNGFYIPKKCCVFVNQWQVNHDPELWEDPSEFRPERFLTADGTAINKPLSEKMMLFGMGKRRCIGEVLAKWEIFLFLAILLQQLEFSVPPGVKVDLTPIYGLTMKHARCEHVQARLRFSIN
Text: In addition, there was little or no evidence of metabolism-dependent inhibition of any of the enzymes tested.

[4] = system: LPS-induced NO (plasma NOx, Griess Reaction); assay: Suppression of NO in vivo after LPS in CD-1 mice; design: species or system mouse; conditions: LPS 5 mg/kg 24 h later
Method: FIG. 51—Dose-dependent suppression of NO in vivo by 63415. CD-1 mice (n=6) were dosed with DMSO or […] by oral gavage. LPS (5 mg/kg) was administered 24 h later. Twenty-four hours after LPS administration, whole blood was collected for NO assay. NO inhibition was determined by Griess Reaction from reduced, de-proteinated plasma.

SMILES: CC1(C)CC[C@]2(NC(=O)C(C)(F)F)CC[C@]3(C)[C@H](C(=O)C=C4[C@@]5(C)C=C(C#N)C(=O)C(C)(C)[C@@H]5CC[C@]43C)[C@@H]2C1 [RTA 408, N-((4aS,6aR,6bS,8aR,12aS,14aR,14bS)-11-cyano-2,2,6a,6b,9,9,12a-heptamethyl-10,14-dioxo-1,2,3,4,4a,5,6,6a,6b,7,8,8a,9,10,12a,14,14a,14b-octadecahydropicen-4a-yl)-2,2-difluoropropanamide]
- Induction of luciferase activity, NQO1-ARE reporter [1]: ~2 fold
- NQO1 protein levels [2]: increased NQO1 protein levels in SH-SY5Y cells in a dose-dependent manner
- mRNA levels of alanine transaminase 1 (Alt1 or Gpt1) [3]: increased mRNA levels of alanine transaminase 1
- mRNA levels of alanine transaminase 2 (Alt2 or Gpt2) [3]: no effect
- mRNA levels of aspartate transaminase 1 (Ast1 or Got1) [3]: increased mRNA levels
- mRNA levels of aspartate transaminase 2 (Ast2 or Got2) [3]: reduced mRNA levels
- Animals surviving until Day 4 (LPS-induced sepsis): 80% and 90%
- Survival, systemic LPS (LPS-induced sepsis): improved survival
- Body weight gain approximately 24 h after dosing (neurobehavioral measures; 30 mg/kg): Slight decreases in body weight gain
- Neurobehavioral endpoints (neurobehavioral measures; single oral dose up to and including 30 mg/kg): did not produce any adverse effects
- inhibition at 3 µM (CYP1A2): < 50%
- NOx Levels (% vs LPS Controls) ([4]; 13 mg/kg oral gavage): 30%
- NOx Levels (% vs LPS Controls) ([4]; 25 mg/kg oral gavage): 18%
- NOx Levels (% vs LPS Controls) ([4]; 50 mg/kg oral gavage): 16%
